Target: T1, ligand binding domain of human ROR gamma (Homo sapiens, UniProt P51449)
T1 construct: NM_001001523; expressed in transfected cells; host or cells: HEK293T
T1 sequence (P51449 247-497 isoform P51449-2): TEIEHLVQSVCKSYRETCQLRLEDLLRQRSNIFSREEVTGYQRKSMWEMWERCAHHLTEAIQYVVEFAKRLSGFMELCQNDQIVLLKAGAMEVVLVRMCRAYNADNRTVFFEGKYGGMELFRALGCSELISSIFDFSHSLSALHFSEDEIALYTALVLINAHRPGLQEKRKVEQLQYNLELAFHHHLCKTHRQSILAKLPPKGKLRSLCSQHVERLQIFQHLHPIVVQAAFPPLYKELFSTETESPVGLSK
Test: ROR gamma reporter gene assay (GAL4-RORγ LBD luciferase, Dual-Glo)
Assay type: cell-based
Conditions: HEK293T cells transfected with pM-ROR gamma, 8 concentrations 3.5 nM to 10.5 μM, 24 h incubation; read-out: result (pIC50, inhibition of RORγ transcriptional activity) (converted)
How it was run: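 HEK293T cells were co-transfected with GAL4 DBD fused to human RORγ LBD (aa 247-497), a 5×UAS firefly luciferase reporter and CMV-driven renilla luciferase, in medium with 10% charcoal-stripped FBS.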

IC50 [pM]	SMILES
40700	Cc1cncc(Cl)c1C(=O)CN(Cc1cc(F)cc(F)c1)C(=O)c1cnn([C@H]2CC[C@H](C(=O)O)CC2)c1C(F)(F)F [Example 49, trans-4-(4-((2-(3-chloro-5-methylpyridin-4-yl)-2-oxoethyl)(3,5-difluorobenzyl)carbamoyl)-5-(trifluoromethyl)-1H-pyrazol-1-yl)cyclohexanecarboxylic acid]
70800	O=C(CN(Cc1cc(F)cc(F)c1)C(=O)c1cnn([C@H]2CC[C@H](C(=O)O)CC2)c1C(F)(F)F)c1c(F)cncc1Cl [Example 50, trans-4-(4-((2-(3-chloro-5-fluoropyridin-4-yl)-2-oxoethyl)(3,5-difluorobenzyl)carbamoyl)-5-(trifluoromethyl)-1H-pyrazol-1-yl)cyclohexanecarboxylic acid]
4.07e+06	O=C(CN(Cc1cc(F)cc(F)c1)C(=O)c1cnn([C@H]2CC[C@H](C(=O)O)CC2)c1C(F)(F)F)c1c(F)cncc1F [Example 51, trans-4-(4-((3,5-difluorobenzyl)(2-(3,5-difluoropyridin-4-yl)-2-oxoethyl)carbamoyl)-5-(trifluoromethyl)-1H-pyrazol-1-yl)cyclohexanecarboxylic acid]
245000	Cc1cncc(C)c1C(=O)CN(Cc1cc(F)cc(F)c1)C(=O)c1cnn([C@H]2CC[C@H](C(=O)O)CC2)c1C(F)(F)F [Example 52]
16200	O=C(CN(Cc1cc(F)cc(F)c1)C(=O)c1cnn([C@H]2CC[C@H](C(=O)O)CC2)c1C(F)(F)F)c1c(Cl)cccc1Cl [Example 53, trans-4-(4-((2-(2,6-dichlorophenyl)-2-oxoethyl)(3,5-difluorobenzyl)carbamoyl)-5-(trifluoromethyl)-1H-pyrazol-1-yl)cyclohexanecarboxylic acid]
8910	O=C(CN(Cc1cc(F)cc(F)c1)C(=O)c1cnn([C@H]2CC[C@H](C(=O)O)CC2)c1C(F)(F)F)c1c(Cl)cc(F)cc1Cl [Example 55, trans-4-(4-((2-(2,6-dichloro-4-fluorophenyl)-2-oxoethyl)(3,5-difluorobenzyl)carbamoyl)-5-(trifluoromethyl)-1H-pyrazol-1-yl)cyclohexanecarboxylic acid]
15500	O=C(CN(Cc1cc(F)cc(F)c1)C(=O)c1cnn([C@H]2CC[C@H](C(=O)O)CC2)c1C(F)(F)F)c1c(Cl)cc(Cl)cc1Cl [Example 56, trans-4-(4-((3,5-difluorobenzyl)(2-oxo-2-(2,4,6-trichlorophenyl)ethyl)carbamoyl)-5-(trifluoromethyl)-1H-pyrazol-1-yl)cyclohexanecarboxylic acid]
> 1e+07	O=C(CN(Cc1cc(F)cc(F)c1)C(=O)c1cnn([C@H]2CC[C@H](C(=O)O)CC2)c1C(F)(F)F)c1cc(F)cc(F)c1 [Example 60, trans-4-(4-((3,5-difluorobenzyl)(2-(3,5-difluorophenyl)-2-oxoethyl)carbamoyl)-5-(trifluoromethyl)-1H-pyrazol-1-yl)cyclohexanecarboxylic acid]
200000	O=C(CN(Cc1cc(F)cc(F)c1)C(=O)c1cnn([C@H]2CC[C@H](C(=O)O)CC2)c1C(F)(F)F)c1ccc(F)cc1Cl [Example 61, trans-4-(4-((2-(2-chloro-4-fluorophenyl)-2-oxoethyl)(3,5-difluorobenzyl)carbamoyl)-5-(trifluoromethyl)-1H-pyrazol-1-yl)cyclohexanecarboxylic acid]
> 1e+07	O=C(CN(Cc1cc(F)cc(F)c1)C(=O)c1cnn([C@H]2CC[C@H](C(=O)O)CC2)c1C(F)(F)F)c1ccncc1 [Example 62, trans-4-(4-((3,5-difluorobenzyl)(2-oxo-2-(pyridin-4-yl)ethyl)carbamoyl)-5-(trifluoromethyl)-1H-pyrazol-1-yl)cyclohexanecarboxylic acid]
3.39e+06	Cc1coc(C)c1C(=O)CN(Cc1cc(F)cc(F)c1)C(=O)c1cnn([C@H]2CC[C@H](C(=O)O)CC2)c1C(F)(F)F [Example 63, trans-4-(4-((3,5-difluorobenzyl)(2-(2,4-dimethylfuran-3-yl)-2-oxoethyl)carbamoyl)-5-(trifluoromethyl)-1H-pyrazol-1-yl)cyclohexanecarboxylic acid]
> 1e+07	Cc1noc(C)c1C(=O)CN(Cc1cc(F)cc(F)c1)C(=O)c1cnn([C@H]2CC[C@H](C(=O)O)CC2)c1C(F)(F)F [Example 64, trans-4-(4-((3,5-difluorobenzyl)(2-(3,5-dimethylisoxazol-4-yl)-2-oxoethyl)carbamoyl)-5-(trifluoromethyl)-1H-pyrazol-1-yl)cyclohexanecarboxylic acid]
1.32e+06	C#Cc1cccc(Cl)c1C(=O)CN(Cc1cc(F)cc(F)c1)C(=O)c1cnn([C@H]2CC[C@H](C(=O)O)CC2)c1C(F)(F)F [Example 68, trans-4-(4-((2-(2-chloro-6-ethynylphenyl)-2-oxoethyl)(3,5-difluorobenzyl)carbamoyl)-5-(trifluoromethyl)-1H-pyrazol-1-yl)cyclohexanecarboxylic acid]

Further lines, the compound ahead of its results:

SMILES	IC50 [pM]
O=C(CN(Cc1cc(F)ccc1F)C(=O)c1cnn([C@H]2CC[C@H](C(=O)O)CC2)c1C(F)(F)F)c1c(Cl)cncc1Cl [Example 45, trans-4-(4-((2-(3,5-dichloropyridin-4-yl)-2-oxoethyl)(2,5-difluorobenzyl)carbamoyl)-5-(trifluorornethyl)-1H-pyrazol-1-yl)cyclohexanecarboxylic acid]	58900
O=C(CN(Cc1ccco1)C(=O)c1cnn([C@H]2CC[C@H](C(=O)O)CC2)c1C(F)(F)F)c1c(Cl)cncc1Cl [Example 46, trans-4-(4-((2-(3,5-dichloropyridin-4-yl)-2-oxoethyl)(furan-2-ylmethyl)carbamoyl)-5-(trifluoromethyl)-1H-pyrazol-1-yl)cyclohexanecarboxylic acid]	398000
O=C(CN(Cc1ccoc1)C(=O)c1cnn([C@H]2CC[C@H](C(=O)O)CC2)c1C(F)(F)F)c1c(Cl)cncc1Cl [Example 47, trans-4-(4-((2-(3,5-dichloropyridin-4-yl)-2-oxoethyl)(furan-3-ylmethyl)carbamoyl)-5-(trifluoromethyl)-1H-pyrazol-1-yl)cyclohexanecarboxylic acid]	102000
O=C(CN(Cc1cnccn1)C(=O)c1cnn([C@H]2CC[C@H](C(=O)O)CC2)c1C(F)(F)F)c1c(Cl)cncc1Cl [Example 48, trans-4-(4-((2-(3,5-dichloropyridin-4-yl)-2-oxoethyl)(pyrazin-2-ylmethyl)carbarnoyl)-5-(trifluoromethyl)-1H-pyrazol-1-yl)cyclohexanecarboxylic acid]	> 1e+07
COc1cccc(Cl)c1C(=O)CN(Cc1cc(F)cc(F)c1)C(=O)c1cnn([C@H]2CC[C@H](C(=O)O)CC2)c1C(F)(F)F [Example 54, trans-4-(4-((2-(2-chloro-6-methoxyphenyl)-2-oxoethyl)(3,5-difluorobenzyl)carbamoyl)-5-(trifluoromethyl)-1H-pyrazol-1-yl)cyclohexanecarboxylic acid]	70800
O=C(CN(Cc1cc(F)cc(F)c1)C(=O)c1cnn([C@H]2CC[C@H](C(=O)O)CC2)c1C(F)(F)F)c1c(Cl)cc(C(F)(F)F)cc1Cl [Example 57, trans-4-(4-((2-(2,6-dichloro-4-(trifluoromethyl)phenyl)-2-oxoethyl)(3,5-difluorobenzyl)carbamoyl)-5-(trifluoromethyl)-1H-pyrazol-1-yl)cyclohexanecarboxylic acid]	38000
N#Cc1cc(Cl)c(C(=O)CN(Cc2cc(F)cc(F)c2)C(=O)c2cnn([C@H]3CC[C@H](C(=O)O)CC3)c2C(F)(F)F)c(Cl)c1 [Example 58, trans-4-(4-((2-(2,6-dichloro-4-cyanophenyl)-2-oxoethyl)(3,5-difluorobenzyl)carbamoyl)-5-(trifluorornethyl)-1H-pyrazol-1-yl)cyclohexanecarboxylic acid]	135000
O=C(CN(Cc1cc(F)cc(F)c1)C(=O)c1cnn([C@H]2CC[C@H](C(=O)O)CC2)c1C(F)(F)F)c1cc(Cl)cc(Cl)c1 [Example 59, trans-4-(4-((2-(3,5-dichlorophenyl)-2-oxoethyl)(3,5-difluorobenzyl)carbamoyl)-5-(trifluoromethyl)-1H-pyrazol-1-yl)cyclohexanecarboxylic acid]	5.89e+06
O=C(CN(Cc1cc(F)cc(F)c1)C(=O)c1cnn([C@H]2CC[C@H](C(=O)O)CC2)c1C(F)(F)F)C1CCCCC1 [Example 65, trans-4-(4-((2-cyclohexyl-2-oxoethyl)(3,5-difluorobenzyl)carbamoyl)-5-(trifluoromethyl)-1H-pyrazol-1-yl)cyclohexanecarboxylic acid]	> 1e+07
O=C(CN(Cc1cc(F)cc(F)c1)C(=O)c1cnn([C@H]2CC[C@H](C(=O)O)CC2)c1C(F)(F)F)c1c(Cl)cc(C2CC2)cc1Cl [Example 66, trans-4-(4-((2-(2,6-dichloro-4-cyclopropylphenyl)-oxoethyl)(3,5-difluorobenzyl)carbamoyl)-5-(trifluoromethyl)-1H-pyrazol-1-yl)cyclohexanecarboxylic acid]	83200
COc1cc(Cl)c(C(=O)CN(Cc2cc(F)cc(F)c2)C(=O)c2cnn([C@H]3CC[C@H](C(=O)O)CC3)c2C(F)(F)F)c(Cl)c1 [Example 67, trans-4-(4-((2-(2,6-dichloro-4-methoxyphenyl)-2-oxoethyl)(3,5-dffluorobenzyl)carbamoyl)-5-(trifluoromethyl)-1H-pyrazol-1-yl)cyclohexanecarboxylic acid]	56200
